The record followed here is ChEMBL document CHEMBL1201862, “PubChem BioAssay data set” (2004).

Some test systems named below: SN12C; SK-MEL-2; HCC 2998; HOP-92; SK-OV-3; SW-620; MDA-N; IGROV-1; UACC-257; SR; SK-MEL-5; HCT-116; K562; SF-268; M14; NCI-H460; 786-0; NCI-H522; Hs-578T.
Common to all, as to assay: growth of human tumour cells (NCI), 48 h

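Growth conditions: 96-well plates. Treatment: test compound, 48 hours, 5 concentrations. Analysis: linear interpolation between bracketing concentrations; unreached endpoints set to highest concentration. GI50 marks 50% less growth.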 The source made the active and inactive calls. Rule as the data show it: active = GI50 up to about 1.1 µM and inactive = higher.

For `Nc1nn2c(C(Br)Br)cc(C(Br)Br)nc2c1[N+](=O)[O-]`, the GI50 in the test with SN12C is 1.6 µM (inactive); with SK-MEL-2 it was 1.89 µM (inactive); with HCC 2998 it was 2.17 µM (inactive); in the test on HOP-92, 1.17 µM (inactive); with SK-OV-3, 3.43 µM (inactive); in the test with SW-620, 0.244 µM (active). In addition, the GI50 was 1.34 µM (inactive) in the test with MDA-N; 1.21 µM (inactive) in the test with IGROV-1; 1.32 µM (inactive) in the test on UACC-257; 0.283 µM (active) in the test on SR; 1.49 µM (inactive) in the test with SK-MEL-5; 0.634 µM (active) in the test with HCT-116. Also, the GI50 with K562 was 0.248 µM (active); with SF-268, 1.88 µM (inactive); in the test with M14, 0.627 µM (active); with NCI-H460, 2.41 µM (inactive); in the test on 786-0 it was 0.336 µM (active); in the test on NCI-H522, 0.37 µM (active). In the test with Hs-578T, the GI50 was 2.36 µM (inactive).
Consider `Nc1nc(Cl)cc(NCCC2(CO)CCC2)n1`, for which the GI50 is > 100 µM (inactive) in the test with SN12C; > 100 µM (inactive) in the test on SK-MEL-2; > 100 µM (inactive) in the test with HCC 2998; 93.3 µM (inactive) in the test on HOP-92; > 100 µM (inactive) in the test with SK-OV-3; > 100 µM (inactive) in the test on SW-620. The GI50 with MDA-N, in the test with IGROV-1, in the test on UACC-257, in the test with SR, in the test with SK-MEL-5 and in the test on HCT-116 was > 100 µM (inactive) throughout. Also, the GI50 in the test with K562, with SF-268, with M14, with NCI-H460, in the test on 786-0 and in the test with NCI-H522 was > 100 µM (inactive) throughout. Also, the GI50 in the test on Hs-578T is 45.4 µM (inactive).
Regarding `O=C(Nc1ccc([As](=O)(O)O)cc1)Nc1cccc(Cl)c1Cl`, the GI50 in the test with SN12C is > 100 µM (inactive); in the test on SK-MEL-2, > 100 µM (inactive); in the test on HCC 2998, > 100 µM (inactive); with HOP-92, 77.8 µM (inactive); in the test on SK-OV-3, > 100 µM (inactive); in the test with SW-620, > 100 µM (inactive). For the same molecule, the GI50 was > 100 µM (inactive) in the test with MDA-N; > 100 µM (inactive) in the test with IGROV-1; > 100 µM (inactive) in the test on UACC-257; 17 µM (inactive) in the test on SR; > 100 µM (inactive) in the test with SK-MEL-5; > 100 µM (inactive) in the test on HCT-116. Besides, the GI50 in the test on K562 is 97.5 µM (inactive); in the test with SF-268 it was 45.7 µM (inactive); in the test with M14, > 100 µM (inactive); in the test with NCI-H460, > 100 µM (inactive); in the test with 786-0, 46.1 µM (inactive); in the test on NCI-H522 it was > 100 µM (inactive). Moreover, in the test with Hs-578T, the GI50 is 20.5 µM (inactive).
On to `CCN(CC)COC(=S)S`, for which the GI50 is > 100 µM (inactive) in the test on SN12C; 1.82 µM (inactive) with SK-MEL-2; > 49.9 µM (inactive) in the test on HCC 2998; > 100 µM (inactive) in the test with HOP-92; > 100 µM (inactive) with SK-OV-3; 24.2 µM (inactive) in the test with SW-620. In addition, the GI50 in the test with MDA-N was > 63.2 µM (inactive); in the test on IGROV-1, 89.7 µM (inactive); in the test with UACC-257 it was 27.5 µM (inactive); with SR, 0.233 µM (active); in the test with SK-MEL-5, 21.6 µM (inactive); in the test on HCT-116, 40.4 µM (inactive). Besides, the GI50 in the test on K562 was 38 µM (inactive); in the test with SF-268, > 78 µM (inactive); in the test on M14, 44.1 µM (inactive); in the test on NCI-H460, 30.1 µM (inactive); with 786-0 it was 33.3 µM (inactive); in the test on NCI-H522 it was 3.61 µM (inactive). The GI50 with Hs-578T was > 100 µM (inactive).
With `CCn1c2ccc(C(=O)CCCN(C)C)cc2c2cc(C(=O)CCCN(C)C)ccc21`, the GI50 is 0.946 µM (active) with SN12C; 2.25 µM (inactive) in the test with SK-MEL-2; 1.69 µM (inactive) in the test on HCC 2998; 3.03 µM (inactive) in the test on HOP-92; 5.79 µM (inactive) with SK-OV-3; 0.53 µM (active) in the test on SW-620. The GI50 with MDA-N is 2.05 µM (inactive); in the test with IGROV-1, 0.889 µM (active); in the test with UACC-257, 3.44 µM (inactive); in the test on SR it was 1.13 µM (inactive); in the test with SK-MEL-5 it was 4.69 µM (inactive); with HCT-116, 0.593 µM (active). For the same molecule, the GI50 with K562 was 2.05 µM (inactive); in the test on SF-268, 1.75 µM (inactive); in the test with M14 it was 1.95 µM (inactive); in the test with NCI-H460, 0.421 µM (active); with 786-0 it was 0.243 µM (active); in the test with NCI-H522, 3.04 µM (inactive). The GI50 with Hs-578T is 2.32 µM (inactive).
Turning to `O=C(OC1C#CCSCC#C/C=C\1)c1cnc2ccccc2n1` (stereo not given), the GI50 with SN12C, in the test with SK-MEL-2, in the test on HCC 2998, in the test with HOP-92, with SK-OV-3 and in the test with SW-620 was > 100 µM (inactive) in each case. Further, the GI50 in the test with MDA-N is > 100 µM (inactive); in the test on IGROV-1, > 100 µM (inactive); in the test with UACC-257 it was > 100 µM (inactive); with SR, 12.2 µM (inactive); in the test on HCT-116, > 100 µM (inactive); in the test on K562 it was 19.7 µM (inactive). The GI50 was > 100 µM (inactive) with SF-268; > 100 µM (inactive) in the test with M14; 14.1 µM (inactive) in the test on NCI-H460; 0.461 µM (active) in the test with 786-0; > 100 µM (inactive) in the test with NCI-H522; 29.8 µM (inactive) in the test with Hs-578T.
Regarding `CN1C(=O)CC2CCCN2C1=O` (stereo not given), the GI50 in the test with SK-MEL-2 was > 100 µM (inactive); in the test on HCC 2998, > 100 µM (inactive); in the test with HOP-92, 86.9 µM (inactive); with SK-OV-3 it was > 100 µM (inactive); with SW-620, > 100 µM (inactive); with MDA-N, > 100 µM (inactive). In addition, the GI50 in the test with IGROV-1, in the test with UACC-257, in the test with SR, in the test with SK-MEL-5, in the test on K562 and in the test with SF-268 was > 100 µM (inactive) throughout. In addition, the GI50 in the test with M14, in the test on NCI-H460, with 786-0, with NCI-H522 and with Hs-578T was > 100 µM (inactive) throughout.
Turning to `Cc1nc2c(ccc3[nH]c4ccccc4c32)s1`, the GI50 is 24 µM (inactive) in the test with SN12C; 19.9 µM (inactive) in the test with SK-MEL-2; 15.3 µM (inactive) in the test on HCC 2998; 16.3 µM (inactive) in the test with HOP-92; 22.3 µM (inactive) with SK-OV-3; 19.7 µM (inactive) in the test with SW-620. The GI50 is 31.1 µM (inactive) in the test on MDA-N; 21.9 µM (inactive) with IGROV-1; 35.6 µM (inactive) in the test with UACC-257; 13.8 µM (inactive) in the test on SR; 15.2 µM (inactive) in the test on SK-MEL-5; 17.4 µM (inactive) with HCT-116. The GI50 in the test on K562 was 22.3 µM (inactive); with SF-268, 29.2 µM (inactive); with M14, 18.9 µM (inactive); with NCI-H460, 20.6 µM (inactive); with 786-0 it was 26.1 µM (inactive); in the test with NCI-H522 it was 15.9 µM (inactive). In the test on Hs-578T, the GI50 was 16.3 µM (inactive).
Consider `O=C1C2CC[C@@H]3C(=O)C(Cl)(Cl)[C@@H]3CCC2C1(Cl)Cl` (stereo not given in full), for which the GI50 in the test on SN12C, in the test with SK-MEL-2, in the test on HCC 2998, with HOP-92, with SK-OV-3 and in the test on SW-620 was > 100 µM (inactive) throughout. The GI50 with MDA-N is > 72.4 µM (inactive); in the test on IGROV-1, > 100 µM (inactive); in the test with UACC-257, > 100 µM (inactive); in the test on SR it was 26.9 µM (inactive); in the test on SK-MEL-5 it was > 100 µM (inactive); in the test with HCT-116 it was > 86.5 µM (inactive). Also, the GI50 with K562 was 44.8 µM (inactive); in the test with SF-268, > 100 µM (inactive); in the test with M14, > 100 µM (inactive); with NCI-H460, > 100 µM (inactive); in the test on 786-0, > 100 µM (inactive); with NCI-H522, > 58.7 µM (inactive). The GI50 with Hs-578T was > 100 µM (inactive).
In the case of `CC(=O)c1ccc2c(c1)CC1(C2)Cc2ccccc2C1=O` (stereo not given), the GI50 is 69 µM (inactive) with SN12C; 71 µM (inactive) in the test on SK-MEL-2; 40.6 µM (inactive) in the test with HCC 2998; 22.4 µM (inactive) in the test with HOP-92; > 100 µM (inactive) in the test with SK-OV-3; > 100 µM (inactive) with SW-620. For the same molecule, the GI50 was 45.1 µM (inactive) with MDA-N; 79.1 µM (inactive) in the test on IGROV-1; 15.5 µM (inactive) with UACC-257; 20.8 µM (inactive) in the test with SR; 21.8 µM (inactive) in the test with SK-MEL-5; 44.1 µM (inactive) with HCT-116. For the same molecule, the GI50 in the test on K562 is 36.1 µM (inactive); in the test with SF-268, 74 µM (inactive); in the test with M14, 31 µM (inactive); in the test on NCI-H460 it was 62.1 µM (inactive); in the test with 786-0 it was 77.8 µM (inactive); with NCI-H522 it was 21.5 µM (inactive). Also, in the test with Hs-578T, the GI50 is 39.8 µM (inactive).
Consider `CC(=O)OC(C)c1cc2c(s1)C(=O)c1ccsc1C2=O` (stereo not given), for which the GI50 in the test with SN12C was 0.156 µM (active); in the test on SK-MEL-2 it was 0.483 µM (active); with HCC 2998 it was 0.451 µM (active); with HOP-92, 0.372 µM (active); with SK-OV-3 it was 2.07 µM (inactive); with SW-620, 0.324 µM (active). In addition, the GI50 in the test with MDA-N is 0.0206 µM (active); in the test with IGROV-1, 0.659 µM (active); with UACC-257 it was 0.028 µM (active); with SR it was 0.0748 µM (active); with SK-MEL-5, 0.0273 µM (active); in the test on HCT-116 it was 0.226 µM (active). Moreover, the GI50 in the test on K562 was 0.131 µM (active); in the test on SF-268, 0.213 µM (active); in the test on M14, 0.129 µM (active); in the test with 786-0, 0.286 µM (active); with NCI-H522, 0.149 µM (active); with Hs-578T it was 0.154 µM (active).
